Values quoted from earlier work as cited in patent US20230073946A1, “AFFINITY PEPTIDE […] A[…] PROTECTION OF PROTEINS FROM OXIDATION” (ARIZONA BOARD OF REGENTS ON BEHALF OF THE UNIVERSITY OF …, priority 2020, published 2023).

Test system: sugen/hypoxic PAH model
Details: cited from earlier work

## CC1(C)CC(O)CC(C)(C)N1[O] [TEMPOL]
Recently reported
  preventing pulmonary arterial remodeling: not effective
sugen/hypoxic PAH model, reported
  right ventricular hypertrophy and pulmonary arterial remodeling: failed to attenuate
